The test system of one data set is AI-2 activity of APEC O1. As to the kind of experiment: AI-2 bioluminescence indicator assay, APEC O1. The format is cell-based, avian pathogenic E. coli (APEC) O1. Particulars: Escherichia coli, read-out: % Inhibtion of AI-2 activity, serotype O1, bioluminescence vs DMSO treated control. As for the experimental part: Overnight culture of APEC O78 prepared in LB broth was adjusted to an optical density (OD600) of 0.05 (7 × 10^7 CFU/mL) in fresh LB broth. One hundred micro-liters of the culture was transferred to a 96-well plate and 1µL (100 μM final concentration) of the compound was added to each well using a pin tool. Chloramphenicol (40 μg/mL) or kanamycin (30 μg/mL) and 1μL of 100% DMSO were included as controls in each plate. Plates were incubated at 37 °C for 10 h with shaking in a Sunrise^TM Tecan plate reader (Tecan Group Ltd. San Jose, CA, USA) and the growth was kinetically monitored every 30 min by measuring the OD at 600 nm.
The AI-2 bioluminescence assay was performed as described previously. Briefly, APEC O78 cultures grown in the presence of SMs (see above) were centrifuged at 5000 × g for 10 min, and cell-free culture supernatants were prepared by using a 0.22 µm filter 96 well plate (Millipore). The bioluminescence reporter V. harveyi BB170 (AI-1^+ and AI-2^-) was grown overnight in AB medium at 30 °C aerobically with shaking. The overnight culture was diluted to 1:5000 in fresh AB medium and incubated at 30 °C for 3 h. Following incubation, 180 μL of the V. harveyi BB170 culture was distributed into each well of a 96-well plate and mixed with 20 µL of the cell free culture supernatant, the plate was then incubated at 30 °C for 2.5 h in the dark and the bioluminescence was measured using in vivo imaging system (IVIS Lumina Series III, PerkinElmer, USA). […] Cell-free culture supernatants collected from overnight cultures of V. harveyi BB120 (AI-1^+andAI-2^+) and E. coli DH5α (a strain lacks AI-2) were used as controls. Bioluminescence of SMs treated culture supernatants were compared to DMSO treated control. The Z-score was calculated to evaluate the quality of the bioluminescence screening. Four independent experiments were conducted for the 69 compounds that inhibited ≥ 75% of the AI-2 mediated bioluminescence and the average inhibition percentage was calculated.
The selected compounds were also tested for inhibition of AI-2 production in other APEC serotypes such as O1, O2, O8, O15, O18, O35, O109, and O115 that are commonly implicated in colibacillosis using the same procedure described above.

Data set [1] has as its system G. mellonella larvae infected with APEC O78. As to the kind of experiment: Wax moth (G. mellonella) larva infection model. The format is in vivo, Galleria mellonella. Particulars: for increase in larval survival: 12.5 µg/larva (50 mg/kg), APEC O78 4.25 × 10^4 CFU, 72 h, vs DMSO treated controls; for clearance of APEC in surviving larvae / reduction of bacterial load in surviving larvae: live larvae at 72 h; for reduction of bacterial load in surviving larvae: in comparison to dead larvae. On the procedure:
G. mellonella caterpillars (larvae) in the final instar stage (fifth instar) were obtained from Vanderhorst, Inc. (St. Mary’s, Ohio, USA), stored in wood shavings in a petri dish in the dark and used within 7 days of receiving. Larvae with 15–25 mm length, 250–350 mg weight, having a creamy color with minimal speckling and no grey markings were used in this study. The infection was performed as described previously. For the inoculation, AI-2 inhibitors were diluted in a buffer mix (30% DMSO plus 10 mM MgSO4) as described previously and each larva (n = 10) was inoculated with 8.5 µL (50 mg/kg; 12.5 µg/larva) of the AI-2 inhibitors into the hemocoel via the last left proleg using PB600-1 repeating dispenser (Hamilton) attached to insulin syringe (31 gauge, 8 mm needle length; ReliOn). Larvae were placed inside sterile petri dishes and incubated for 2 h in the dark at 37 °C. Then, larvae were infected with 8.5 µL of (4.25 × 10^4 CFU) of Rif^R APEC O78 in 10 mM MgSO4 on the right hind proleg. Rif^R APEC O78 was generated as described above by plating APEC on LB agar plate containing 50 µg/ mL rifampicin for specific monitoring of APEC population inside the larvae. […] Infection dose of Rif^R APEC O78 to larvae was identified based on preliminary study (Figure S1). Larvae were incubated at 37°C in the dark and the survival was monitored daily for 72 h. Infected larvae treated with buffer mix and 75 mg/kg of chloramphenicol were used as controls.
For the quantification of APEC inside the larvae, dead and live larvae were surface sterilized with 70% ethanol, homogenized in PBS. The suspension was tenfold serially diluted and plated on MacConkey agar plates supplemented with 50 µg/mL of rifampicin. The plates were then incubated overnight at 37 °C and APEC load was enumerated. Two independent experiments were conducted using larvae (n = 10) obtained in different batches.

Another data set has as its system APEC O2 in HD-11 cells. Briefly: Intracellular survival assay, APEC O2 in HD-11 cells. The format is cell-based, avian pathogenic E. coli (APEC) O2. Particulars: MOI 100, 100 µM, 6 h; for reduction of intracellular survival of APEC O2: vs DMSO treated control. As for the experimental part: (§1) The effect of the selected AI-2 inhibitors on the survival of APEC in macrophage cells was tested as described before. Briefly, HD-11 cells was grown as described above and infected with 1 × 10^7 CFU (MOI = 100) of mid-log phase APEC strains (O78, O1 and O2) at 37 °C for 1 h. Cells were washed with PBS and treated with gentamicin (150 μg/mL) for 1 h to kill the extracellular bacteria. The cells were then washed and incubated with 100 µM of each compound in media containing 10 μg/mL of gentamicin at 37 °C for 6 h. Following treatment, cells were washed, lysed with 0.1% Triton X-100 for 5 min, ten-fold serially diluted in PBS and plated on LB agar plates to determine CFUs. Cells treated with chloramphenicol (40 μg/mL) and 1 μL of 100% DMSO were used as controls. The experiment was conducted two times with four replicates in each experiment. Intracellular survival was expressed as the log change of APEC CFUs in the AI-2 inhibitors treated cells.

The next data set concerns APEC O78 in HD-11 cells. Briefly: Intracellular survival assay, APEC O78 in HD-11 cells. The format is cell-based, avian pathogenic E. coli (APEC) O78. As to conditions: MOI 100, 100 µM, 6 h; for reduction of intracellular survival of APEC O78: vs DMSO treated control. As for the experimental part:
as §1

For a further data set, the system named is Caco-2 cells. Briefly: Lactate dehydrogenase (LDH) cytotoxicity assay, Caco-2. In kind it is cell-based, human. Particulars: 100 µM, 24 h. On the procedure:
The selected 10 AI-2 inhibitors were evaluated for their toxicity to Caco-2 (ATCC® HTB-37™) using LDH assay. Briefly, Caco-2 cells (1.4 × 10^5 cells/well) were grown in a 96-well plate in minimal essential medium (MEM) supplemented with 20% fetal bovine serum (FBS; Gibco), 1% non-essential amino acid (NEAA, Invitrogen Life Technologies) and 1mM sodium pyruvate, at 37 °C in a humidified 5% CO2 incubator for 48 h until a complete monolayer was formed. For LDH assay, cells were washed twice with media containing no FBS/no antibiotics and incubated with 150 µL of fresh media containing 100 μM of each compound at 37 °C for 24 h in a humidified 5% CO2 incubator. Fifty microliters of supernatant was analyzed using LDH Cytotoxicity Assay Kit (Thermo Scientific).

In the case of `COCCN1CCC(CN(Cc2ccncc2)Cc2ccccc2Cl)CC1` [C1, (2-chlorobenzyl){[1-(2-methoxyethyl)-4-piperidinyl]methyl}(4-pyridinylmethyl)amine], the inhibition at 100 µM in the data set with AI-2 activity of APEC O1 is no less than 75%. For the same compound, in data set [1], the “increase in larval survival” value stood at 23% and the “larval death at 72 h post treatment (in words)” value is “no larval death”.
Turning to `Cc1ccccc1N1CCN(C2CCCN(C(=O)c3ccc(F)c(Cl)c3)C2)CC1` (stereo not shown) [C2, 1-[1-(3-chloro-4-fluorobenzoyl)-3-piperidinyl]-4-(2-methylphenyl)piperazine], the inhibition at 100 µM in the data set on AI-2 activity of APEC O1 worked out at 64%. Moreover, in data set [1], the “increase in larval survival” value was 30%, the “larval death at 48 h post treatment (in words)” value is reported as “no larval death”, the “clearance of APEC in surviving larvae” value was determined as 100% and the “reduction of bacterial load in surviving larvae” value is “up to 5 logs”.
Regarding `NC(=O)c1ccccc1Nc1cccc(C(F)(F)F)c1` [C3, 2-{[3-(trifluoromethyl)phenyl]amino}benzamide], the inhibition at 100 µM in the data set with AI-2 activity of APEC O1 amounted to 65%.
For the compound `CS/C(N)=N/N=C/c1cc(C)ccc1O` [C4, methyl N'-(2-hydroxy-5-methylbenzylidene)h ydrazonothiocarbamate], in the data set with APEC O2 in HD-11 cells, the “reduction of intracellular survival of APEC O2” value (from here on “reduction … of APEC O2”) is recorded as “up to 0.8 logs”. The “reduction of intracellular survival of APEC O78” value (shortened to “reduction … of APEC O78”) in the data set with APEC O78 in HD-11 cells is “up to 1 logs”. For the same compound, the inhibition at 100 µM with AI-2 activity of APEC O1 amounted to 63%. The “cytotoxicity (LDH release)” value in the data set with Caco-2 cells is 12%.
Turning to `Cc1ccc(CN2CCN(CCCc3ccccc3)CC2)cc1` [C5, 1-(4-methylbenzyl)-4-(3-phenylpropyl)piperazine], in the data set on APEC O2 in HD-11 cells, the “clearance of intracellular APEC O2” value was 100% and the “reduction … of APEC O2” value was ~ 3.3 logs. Moreover, in the data set with AI-2 activity of APEC O1, the inhibition at 100 µM was 46%. Moreover, the “larval death at 48 h post treatment (in words)” value in data set [1] is on record as “no larval death”.
Regarding `O=[N+]([O-])c1cccc(S(=O)(=O)Nc2ccc(Br)cc2)c1` [C6, N-(4-bromophenyl)-3-nit robenzenesulfonamide], in the data set with APEC O2 in HD-11 cells, the “clearance of intracellular APEC O2” value is listed as 100% and the “reduction … of APEC O2” value is ~ 3.3 logs. Besides, in the data set on AI-2 activity of APEC O1, the inhibition at 100 µM was no less than 75%. In addition, the “larval death at 48 h post treatment (in words)” value in data set [1] is “no larval death”. Moreover, in the data set with Caco-2 cells, the “cytotoxicity (LDH release)” value is listed as 27%.
As for `O=C(CCN1CCN(c2ccccc2F)CC1)Nc1ccc(Br)cc1` [C7, N-(4-bromophenyl)-3-[4-(2-fluorophenyl)-1-piperazinyl]propanamide], the “reduction … of APEC O2” value in the data set with APEC O2 in HD-11 cells is “up to 0.8 logs”. Besides, the inhibition at 100 µM in the data set with AI-2 activity of APEC O1 worked out at 47%. In data set [1], the “larval death at 72 h post treatment (in words)” value is given as “no larval death”.
Regarding `CCc1ccccc1Nc1nc(-c2c(C)nc3ccccn23)cs1` [C8, N-(2-ethylphenyl)-4-(2-methylimidazo[1,2-a]pyridin-3-yl)-1,3-thiazol-2-amine], the “reduction … of APEC O2” value in the data set on APEC O2 in HD-11 cells is recorded as “up to 0.8 logs”. Moreover, the “reduction … of APEC O78” value with APEC O78 in HD-11 cells was “up to 1 logs”. Further, the inhibition at 100 µM in the data set on AI-2 activity of APEC O1 came to 41%. Besides, in data set [1], the “larval death at 48 h post treatment (in words)” value is reported as “no larval death”, the “clearance of APEC in surviving larvae” value was found to be 100% and the “reduction of bacterial load in surviving larvae” value is “up to 5 logs”. Further, the “cytotoxicity (LDH release)” value with Caco-2 cells came out at 2%.
For the compound `Fc1ccc(CN2CCCN(Cc3nc(-c4ccc(C(F)(F)F)cc4)no3)CC2)cc1` [C9, 1-(4-fluorobenzyl)-4-({3-[4-(trifluoromethyl)phenyl]-1,2,4-oxadiazol-5-yl}methyl)-1,4-diazepane], in the data set on APEC O2 in HD-11 cells, the “clearance of intracellular APEC O2” value was 100% and the “reduction … of APEC O2” value is reported as ~ 3.3 logs. Also, in the data set on APEC O78 in HD-11 cells, the “clearance of intracellular APEC O78” value turned out to be 100% and the “reduction … of APEC O78” value is reported as ~ 4 logs. Besides, the inhibition at 100 µM with AI-2 activity of APEC O1 turned out to be 19%.
`OCCC1CN(C2CCN(c3ccccc3)CC2)CCN1CCCc1ccccc1` (stereo not shown) [C10, 2-[4-(1-phenyl-4-piperidinyl)-1-(3-phenylpropyl)-2-piperazinyl]ethanol]: in the data set with APEC O2 in HD-11 cells, the “clearance of intracellular APEC O2” value was determined as 100% and the “reduction … of APEC O2” value was ~ 3.3 logs. Further, in the data set on APEC O78 in HD-11 cells, the “clearance of intracellular APEC O78” value stood at 100% and the “reduction … of APEC O78” value was ~ 4 logs. Further, the inhibition at 100 µM in the data set with AI-2 activity of APEC O1 worked out at 64%. The “cytotoxicity (LDH release)” value in the data set on Caco-2 cells is on record as 27%.

Source of the values: article PMC7000209, “Novel small molecule modulators of quorum sensing in avian pathogenic Escherichia coli (APEC)” (Virulence, 2018).
